Test results as given in a compilation of properties of binary mixtures (doi:10.1021/acs.jced.0c00447).

Experiment: xn = mol fraction of the nth substance listed
Settings: 100 kPa

OCC(F)(F)F + CC[n+]1ccn(C)c1.N#C[N-]C#N
x2 = 0
Settings | speed of sound [m/s] | viscosity [mPa·s]
303.15 K | 819.3 | 1.56
313.15 K | 792.3 | 1.23
318.15 K | 778.8 | 1.1
323.15 K | 765.1 | 0.99

CC[n+]1ccn(C)c1.N#C[N-]C#N + OCC(F)(F)F
Settings | speed of sound [m/s] | viscosity [mPa·s]
298.15 K, x1 = 0.1031 | 1021.8 | 2.48
298.15 K, x1 = 0.1957 | 1150.9 | 3.2
298.15 K, x1 = 0.4905 | 1463.6 | 6.07
298.15 K, x1 = 0.5915 | 1544.5 | 7.25
298.15 K, x1 = 0.6943 | 1614.6 | 8.56
298.15 K, x1 = 0.7956 | 1673.5 | 9.95
298.15 K, x1 = 0.8915 | 1730.2 | 11.36
298.15 K, x1 = 1 | 1786.7 | 13.09
303.15 K, x1 = 0.1957 | 1137.7 | 2.81
303.15 K, x1 = 0.2936 | 1258.6 | 3.55
303.15 K, x1 = 0.3935 | 1366.8 | 4.39
303.15 K, x1 = 0.4905 | 1450.9 | 5.29
303.15 K, x1 = 0.6943 | 1602.2 | 7.46
303.15 K, x1 = 0.7956 | 1661.2 | 8.67
303.15 K, x1 = 0.8915 | 1717.9 | 9.91
303.15 K, x1 = 1 | 1774.6 | 11.39
308.15 K, x1 = 0.1031 | 995.3 | 1.96
308.15 K, x1 = 0.1957 | 1124.7 | 2.52
308.15 K, x1 = 0.2936 | 1245.8 | 3.17
308.15 K, x1 = 0.3935 | 1354.2 | 3.92
308.15 K, x1 = 0.4905 | 1438.3 | 4.71
308.15 K, x1 = 0.5915 | 1519.5 | 5.61
308.15 K, x1 = 0.6943 | 1590 | 6.6
308.15 K, x1 = 0.7956 | 1649.1 | 7.66
308.15 K, x1 = 1 | 1762.5 | 10
313.15 K, x1 = 0.1031 | 982.2 | 1.76
313.15 K, x1 = 0.1957 | 1111.8 | 2.27
313.15 K, x1 = 0.2936 | 1233.1 | 2.87
313.15 K, x1 = 0.3935 | 1341.7 | 3.54
313.15 K, x1 = 0.4905 | 1425.9 | 4.25
313.15 K, x1 = 0.5915 | 1507.3 | 5.04
313.15 K, x1 = 0.6943 | 1577.9 | 5.91
313.15 K, x1 = 0.7956 | 1637 | 6.83
313.15 K, x1 = 0.8915 | 1693.9 | 7.76
318.15 K, x1 = 0.1031 | 969.4 | 1.6
318.15 K, x1 = 0.3935 | 1329.4 | 3.23
318.15 K, x1 = 0.4905 | 1413.7 | 3.86
318.15 K, x1 = 0.5915 | 1495.2 | 4.57
318.15 K, x1 = 0.6943 | 1565.9 | 5.34
318.15 K, x1 = 0.7956 | 1625 | 6.15
318.15 K, x1 = 0.8915 | 1682 | 6.96
318.15 K, x1 = 1 | 1738.8 | 7.92
323.15 K, x1 = 0.1031 | 956.4 | 1.48
323.15 K, x1 = 0.1957 | 1086.4 | 1.93
323.15 K, x1 = 0.2936 | 1208.1 | 2.44
323.15 K, x1 = 0.3935 | 1317.1 | 2.99
323.15 K, x1 = 0.4905 | 1401.5 | 3.57
323.15 K, x1 = 0.5915 | 1483.2 | 4.2
323.15 K, x1 = 0.6943 | 1553.9 | 4.89
323.15 K, x1 = 0.7956 | 1613.1 | 5.6
323.15 K, x1 = 0.8915 | 1670.2 | 6.31
323.15 K, x1 = 1 | 1727.1 | 7.13
